# Measurements as given in patent US11292798B2, “Merocyanine-based compound and biomolecular labeling dye, kit and contrast agent composition comprising same” (SFC CO., LTD., priority 2017, dated 2022).
# Test: absorption spectrum, light emission spectrum, molecular extinction coefficient and quantum efficiency in solvents
# Format: physicochemical
ε (molecular extinction coefficient) (solvent CH2Cl2),λem (solvent CH2Cl2) [nm],λex (solvent CH2Cl2) [nm],ε (molecular extinction coefficient) (solvent DMSO),λem (solvent DMSO) [nm],λex (solvent DMSO) [nm],ε (molecular extinction coefficient) (solvent EtOH),λem (solvent EtOH) [nm],λex (solvent EtOH) [nm],ε (molecular extinction coefficient) (solvent H2O),λem (solvent H2O) [nm],λex (solvent H2O) [nm],φ (quantum efficiency) (solvent DMSO),φ (quantum efficiency) (solvent CH2Cl2),φ (quantum efficiency) (solvent EtOH),ε (molecular extinction coefficient) (solvent PBS),λem (solvent PBS) [nm],λex (solvent PBS) [nm],SMILES,φ (quantum efficiency) (solvent H2O),φ (quantum efficiency) (solvent PBS),other results
"49,000 Lmol^−1cm^−1",515,488,"47,000 Lmol^−1cm^−1",519,494,"47,000 Lmol^−1cm^−1",516,490,"48,000 Lmol^−1cm^−1",516,492,0.935,0.137,0.872,"51,000 Lmol^−1cm^−1",516,492,CC1(C)C2=C3C=C(C(=O)CCCC(=O)[O-])C(=O)OC3CCN2c2ccc3cc(S(=O)(=O)[O-])ccc3c21.[Na+].[Na+] (centres unmarked) [Compound 16],0.405,0.417,
"42,000 Lmol^−1cm^−1",511,486,"46,000 Lmol^−1cm^−1",516,492,"47,000 Lmol^−1cm^−1",516,486,"26,000 Lmol^−1cm^−1",520,468,0.958,0.944,0.820,"29,000 Lmol^−1cm^−1",520,486,CCOC(=O)CCCC(=O)C1=CC2=C3N(CCC2OC1=O)c1ccc2ccccc2c1C3(C)C (centres unmarked) [Compound 62],0.194,0.193,
"22,000 Lmol^−1cm^−1",468,414,"26,000 Lmol^−1cm^−1",472,412,"28,000 Lmol^−1cm^−1",483,408,"26,000 Lmol^−1cm^−1",500,422,0.84,0.01,0.78,"27,000 Lmol^−1cm^−1",503,423,CC1(C)C2=C3C=C(CC(=O)[O-])C(=O)OC3CCN2c2ccc(S(=O)(=O)[O-])cc21.[Na+].[Na+] (centres unmarked) [Compound 64],0.91,0.95,
,,,"63,000 Lmol^−1cm^−1",479,456,,,,,,,0.900,,,,,,COC(=O)C1=CC2=C3N(CCC2OC1=O)c1ccccc1C3(C)C (centres unmarked) [Compound 1],,,

# Second part, the molecule before the results:
SMILES,ε (molecular extinction coefficient) (solvent CH2Cl2),λem (solvent CH2Cl2) [nm],λex (solvent CH2Cl2) [nm],ε (molecular extinction coefficient) (solvent DMSO),λem (solvent DMSO) [nm],λex (solvent DMSO) [nm],ε (molecular extinction coefficient) (solvent EtOH),λem (solvent EtOH) [nm],λex (solvent EtOH) [nm],ε (molecular extinction coefficient) (solvent H2O),λem (solvent H2O) [nm],λex (solvent H2O) [nm],φ (quantum efficiency) (solvent DMSO),φ (quantum efficiency) (solvent CH2Cl2),φ (quantum efficiency) (solvent EtOH),ε (molecular extinction coefficient) (solvent PBS),λem (solvent PBS) [nm],λex (solvent PBS) [nm],φ (quantum efficiency) (solvent H2O),φ (quantum efficiency) (solvent PBS),other results
COC(=O)C1=CC2=C3N(CCC2OC1=O)c1cc2c(cc1C3(C)C)-c1ccccc1C2(C)C (centres unmarked) [Compound 60],"41,000 Lmol^−1cm^−1",511,470,"42,000 Lmol^−1cm^−1",513,476,"42,000 Lmol^−1cm^−1",519,474,"38,000 Lmol^−1cm^−1",523,476,,,,,,,,,
CC(=O)C1=CC2=C3N(CCC2OC1=O)c1ccc2ccccc2c1C3(C)C (centres unmarked) [Compound 9],,,,"47,000 Lmol^−1cm^−1",516,492,,,,,,,0.910,,,,,,,,
CC1(C)C2=C3C=C(C(=O)O)C(=O)OC3CCN2c2cc3c(cc21)-c1ccccc1C3(C)C (centres unmarked) [Compound 61],"46,000 Lmol^−1cm^−1",522,484,"47,000 Lmol^−1cm^−1",525,480,"49,000 Lmol^−1cm^−1",525,480,"46,000 Lmol^−1cm^−1",516,468,,,,"46,000 Lmol^−1cm^−1",518,468,,,
CC1(C)C2=C3C=C(C(=O)[O-])C(=O)OC3CCN2c2ccc(S(=O)(=O)[O-])cc21.[Na+].[Na+] (centres unmarked) [Compound 2],"20,000 Lmol^−1cm^−1",495,429,"30,000 Lmol^−1cm^−1",500,468,,,,"45,000 Lmol^−1cm^−1",489,453,0.768,0.169,,"44,000 Lmol^−1cm^−1",487,451,0.718,0.796,"ε (molecular extinction coefficient) (solvent MeOH): 50,000 Lmol^−1cm^−1; λem (solvent MeOH): 493 nm; λex (solvent MeOH): 463 nm; φ (quantum efficiency) (solvent MeOH): 0.625"
CC1(C)C2=C3C=C(CC(=O)O)C(=O)OC3CCN2c2ccccc21 (centres unmarked) [Compound 63],"15,000 Lmol^−1cm^−1",466,414,"15,000 Lmol^−1cm^−1",470,416,"15,000 Lmol^−1cm^−1",485,416,"17,000 Lmol^−1cm^−1",506,432,,,,"17,000 Lmol^−1cm^−1",507,434,,,
CC1(C)C2=C3C=C(C(=O)[O-])C(=O)OC3CCN2c2ccccc21.[Na+] (centres unmarked) [Compound 5],,,,"49,000 Lmol^−1cm^−1",490,466,"51,000 Lmol^−1cm^−1",485,462,"50,000 Lmol^−1cm^−1",483,452,0.913,,0.412,"49,000 Lmol^−1cm^−1",483,454,0.062,0.633,
CC1(C)C2=C3C=CC(=O)OC3CCN2c2ccc(S(=O)(=O)[O-])cc21.[Na+] (centres unmarked) [Compound 3],"22,000 Lmol^−1cm^−1",464,403,"27,000 Lmol^−1cm^−1",470,416,,,,"28,000 Lmol^−1cm^−1",492,423,0.645,0.227,,"28,000 Lmol^−1cm^−1",492,423,0.764,0.759,"ε (molecular extinction coefficient) (solvent MeOH): 27,000 Lmol^−1cm^−1; λem (solvent MeOH): 484 nm; λex (solvent MeOH): 410 nm; φ (quantum efficiency) (solvent MeOH): 0.667"
COC(=O)C1=CC2=C3N(CCC2OC1=O)c1ccc2ccccc2c1C3(C)C (centres unmarked) [Compound 6],,,,"53,000 Lmol^−1cm^−1",503,474,,,,,,,0.928,,,,,,,,
